Where two headings read alike, the source gives them in different places.
Columns and labels:
[1] = biological target: T1, MMP-2 (Homo sapiens, UniProt P08253); test: MMP-2 inhibition assay (fluorogenic peptide substrate); format: biochemical; settings: for remaining activity (%): MMP-2; for IC50: n.d: not detected
T1 construct: purchased Sino Biological 10082-HNAH
T1 sequence (P08253 110-660): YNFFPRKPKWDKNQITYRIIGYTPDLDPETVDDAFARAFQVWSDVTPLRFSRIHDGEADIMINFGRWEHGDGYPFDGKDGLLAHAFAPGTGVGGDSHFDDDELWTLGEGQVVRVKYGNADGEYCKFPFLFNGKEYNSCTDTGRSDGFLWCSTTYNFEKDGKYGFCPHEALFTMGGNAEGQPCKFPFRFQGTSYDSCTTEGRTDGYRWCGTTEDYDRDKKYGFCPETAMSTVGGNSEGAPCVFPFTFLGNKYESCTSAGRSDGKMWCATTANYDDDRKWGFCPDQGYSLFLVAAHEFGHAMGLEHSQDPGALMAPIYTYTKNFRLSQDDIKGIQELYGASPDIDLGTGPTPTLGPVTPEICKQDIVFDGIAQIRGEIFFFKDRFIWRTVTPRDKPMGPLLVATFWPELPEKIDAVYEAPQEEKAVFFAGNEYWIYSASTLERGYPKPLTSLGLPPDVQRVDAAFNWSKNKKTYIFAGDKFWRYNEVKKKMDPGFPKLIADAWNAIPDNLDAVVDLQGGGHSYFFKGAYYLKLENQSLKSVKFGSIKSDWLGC
Protocol: (§1) The inhibition by the small molecule compounds against MMP-2/MMP-9 was measured using an assay probing the enzyme proteolytic activity on the substrate DNP-Pro-Leu-Gly-Met-Trp-Ser-Arg (Enzo Life Sciences, USA). All assays were performed in the assay buffer containing 50 mM Tris, 100 mM NaCl. 5 mM CaCl2, and 0.1% Brij 35, pH 7.5. Human proMMP-2 and proMMP-9 were purchased from Sino biological (Germany). The proMMPs were activated by 1 mM APMA in the assay buffer at 37 °C for 2 h. After activation, MMP-2 was diluted to 6.5 nM of final assay concentration, and MMP-9 was diluted by the buffer to reach 10 nM of final assay concentration. In each well, 49 μl of enzyme solution was incubated with 1 μl of compounds of series of concentration (nM-mM in DMSO) at RT for 30 min. 2 μl of the FRET substrate was added right before the measurement at a final concentration of 25 μM. The rate of hydrolysis was monitored by quantifying the emission at 360 nm (ex: 280 nm). The emission was measured with intervals of the 30 s for 30 min with Synergy H1 Plate Reader (Agilent, USA). The measurements were done in triplicate. […] Then, curves were plotted as a function of the concentration of the inhibitor against the relative enzyme activity. Vmax was derived from the detected […] signal for each concentration and logistic fitting was performed to obtain IC50 values using Origin 2019b (OriginLab).

[2] = biological target: T2, MMP-9 (Homo sapiens, UniProt P14780); test: MMP-9 inhibition assay (fluorogenic peptide substrate); format: biochemical; design: remaining enzyme activity (% of control): scale not given here; settings: for remaining enzyme activity (% of control): MMP-9; for IC50: n.d: not detected
T2 construct: purchased Sino Biological 10327-HNAH
Protocol: as §1

[3] = Figure 5d, fragment combination joined by linker, read-out: MMP9 IC50
[4] = Figure 5d, fragment combination joined by linker, read-out: MMP2 IC50

T2 sequence (P14780 107-707 limits assumed): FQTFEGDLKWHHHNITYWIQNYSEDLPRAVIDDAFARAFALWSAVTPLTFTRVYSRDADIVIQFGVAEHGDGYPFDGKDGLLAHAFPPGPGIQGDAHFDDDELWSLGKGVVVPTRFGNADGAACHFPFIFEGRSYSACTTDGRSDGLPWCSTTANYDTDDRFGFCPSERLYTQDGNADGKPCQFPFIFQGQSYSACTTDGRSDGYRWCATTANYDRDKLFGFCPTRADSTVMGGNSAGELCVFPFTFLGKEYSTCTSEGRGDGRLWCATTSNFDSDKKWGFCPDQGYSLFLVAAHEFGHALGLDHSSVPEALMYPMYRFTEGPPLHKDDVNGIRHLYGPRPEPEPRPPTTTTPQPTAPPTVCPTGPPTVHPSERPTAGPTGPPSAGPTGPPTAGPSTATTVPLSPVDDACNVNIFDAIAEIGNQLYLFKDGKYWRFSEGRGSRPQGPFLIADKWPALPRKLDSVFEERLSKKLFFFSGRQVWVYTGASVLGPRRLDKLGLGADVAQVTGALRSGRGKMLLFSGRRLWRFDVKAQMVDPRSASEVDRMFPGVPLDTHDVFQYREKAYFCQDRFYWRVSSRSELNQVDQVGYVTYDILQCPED

O=C(CNC(=O)NC12CC3CC(CC(C3)C1)C2)NCCOCCOCCNC(=O)c1cncc(O)c1 [66+828 Linker 10]
remaining activity (%) ([1]; concentration 0.07 µM): 92.68
remaining activity (%) ([1]; concentration 0.33 µM): 96.27
remaining activity (%) ([1]; concentration 1.67 µM): 86.29
remaining activity (%) ([1]; concentration 8.34 µM): 96.46
remaining activity (%) ([1]; concentration 41.72 µM): 79.41
remaining activity (%) ([1]; concentration 208.60 µM): 61.20
remaining activity (%) ([1]; concentration 1043.00 µM): 17.26
remaining activity (%) ([1]; concentration […]): 100.18
IC50 ([1]; mean ± SE, Fig. 5d unit inferred, µM, read-out: IC50): 293 ± 32.6 µM
remaining enzyme activity (% of control) ([2]; concentration 0.08 µM): 104.97
remaining enzyme activity (% of control) ([2]; concentration 0.39 µM): 105.32
remaining enzyme activity (% of control) ([2]; concentration 1.95 µM): 97.80
remaining enzyme activity (% of control) ([2]; concentration 9.75 µM): 93.32
remaining enzyme activity (% of control) ([2]; concentration 48.76 µM): 91.82
remaining enzyme activity (% of control) ([2]; concentration 243.80 µM): 71.42
remaining enzyme activity (% of control) ([2]; concentration 1219.00 µM): 29.10
IC50 ([2]; mean ± SE, Fig. 5e prints no unit, µM, read-out: IC50): 521 ± 36.5 µM

Cn1c(O)nc2cc(C(=O)NCCNC(=O)CSCCNC(=O)Cn3cnc4c(oc5ccccc54)c3=O)cnc21 [182_826 24]
IC50 [2, 3]: 281 µM

O=C(CNC(=O)NC12CC3CC(CC(C3)C1)C2)NCCCCCCCCNC(=O)c1cncc(O)c1 [66_828 4]
IC50 [2, 3]: 247 µM

Cn1c(O)nc2cc(C(=O)NCCOCCOCCNC(=O)Cn3cnc4c(oc5ccccc54)c3=O)cnc21 [182_826 10]
IC50 [2, 3]: 283 µM

O=C(CNC(=O)NC12CC3CC(CC(C3)C1)C2)NCCSCC(=O)NCc1c[nH]nn1 [66_787 24]
IC50 [1, 4]: 861 µM

Cn1c(O)nc2cc(C(=O)NCC34CC5CC(CC(C5)C3)C4)cnc21 [66_826 1]
IC50 [2, 3]: 234 µM

Cn1c(O)nc2cc(C(=O)NCCCCCCCCNC(=O)Cn3cnc4c(oc5ccccc54)c3=O)cnc21 [182_826 4]
IC50 [1, 4]: 439 µM

From article PMC10023787, “Trio-pharmacophore DNA-encoded chemical library for simultaneous selection of fragments and linkers” (Nature Communications, 2023)
